Values quoted from earlier work in patent publication US7803400B2, “Artificial low-density lipoprotein carriers for transport of substances across the blood-brain barrier” (Blanchette Rockefeller Neurosciences Institute, priority 2002, dated 2010).

Legend:
[1] = system: murine leukemias and solid tumors
[2] = system: cyclin dependent kinase 2 (Cdk2); conditions: at 5 ng/ml
PKCC = biological target: T1, PKCC (Homo sapiens, UniProt Q02156)
T1 sequence (Q02156 1-737): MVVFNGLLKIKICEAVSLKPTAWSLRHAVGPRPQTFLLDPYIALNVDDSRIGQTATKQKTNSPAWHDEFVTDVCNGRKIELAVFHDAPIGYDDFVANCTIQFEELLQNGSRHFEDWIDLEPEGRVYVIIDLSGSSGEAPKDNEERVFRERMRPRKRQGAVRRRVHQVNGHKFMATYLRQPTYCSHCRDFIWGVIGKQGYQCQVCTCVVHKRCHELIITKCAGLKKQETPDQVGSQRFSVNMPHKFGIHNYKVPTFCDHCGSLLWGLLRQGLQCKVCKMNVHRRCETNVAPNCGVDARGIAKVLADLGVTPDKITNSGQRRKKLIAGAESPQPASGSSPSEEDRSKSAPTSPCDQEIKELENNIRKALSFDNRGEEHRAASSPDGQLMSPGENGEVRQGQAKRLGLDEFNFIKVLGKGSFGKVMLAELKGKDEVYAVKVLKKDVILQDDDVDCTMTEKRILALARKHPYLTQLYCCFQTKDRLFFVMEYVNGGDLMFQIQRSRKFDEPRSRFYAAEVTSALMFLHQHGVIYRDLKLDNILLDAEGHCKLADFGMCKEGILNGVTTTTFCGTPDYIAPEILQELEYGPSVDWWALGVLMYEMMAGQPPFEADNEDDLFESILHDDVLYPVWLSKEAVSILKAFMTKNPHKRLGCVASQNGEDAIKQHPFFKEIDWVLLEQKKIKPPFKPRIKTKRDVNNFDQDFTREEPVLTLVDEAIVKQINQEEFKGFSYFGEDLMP

Compound: CCCCCCCC(=O)O[C@H]1/C(=C/C(=O)OC)C[C@H]2C[C@H](CO)OC(=O)C[C@H](O)CC3CCC[C@H](C[C@@H]4CCO[C@H](/C=C/C(C)(C)[C@]1(O)O2)O4)O3 [Analog 1]
- potency relative to bryostatin-1 (PKC): about 100 times
- Ki (PKC; read-out: PKC Affin): 0.25 nM

Compound: Gnidimacrin
- concentrations of potent antitumor activity [1]: 0.1 to 1 nM
- concentration at which it acts as PKC activator (PKC in K562 cells): ≈ 3 nM
- inhibition of Cdk2 [2]: 100%

Compound: CCCCCC1CC1CC1CC1CCCCCCCC(=O)O (stereo not drawn) [DCP-LA, 2-[(2-pentylcyclopropyl)methyl]cyclopropaneoctanoic acid]
- concentration of maximal effect on PKC activation (PKCC): 100 nM
